The values that follow come from patent publication US7947708B2, “Compounds modulating C-kit activity” (Plexxikon, Inc., priority 2004, dated 2011).

In one assay the test system is M-07e cell line. Briefly: M-07e cell proliferation stimulated by SCF (CellTiter-Glo growth inhibition). It is filed as cell-based. As to conditions: 72 h, SCF 100 ng/ml, three days, CellTiter-Glo luminescence, read-out: IC50, growth inhibition of SCF stimulated M-07e cells.
Assay [1] has as its system cells with activating c-Kit mutations in the catalytic region. As to conditions: Ma et al., 2002; cited from earlier work.

Broadly, the IC50 is the point on the concentration scale where inhibition reaches its midpoint.

Description for M-07e cell line: This inhibition is measured by the effect of compound concentration on cell growth to assess IC50 values. M-07e cells were seeded at 5×10^4 cells per well of a 96 well cell culture plate in 50 μl of cell culture medium of Iscove's Medium 1× (MOD, CellGro Mediatech catalog #15-016-CV) supplemented with 10% FBS (HyClone catalog #SH30071.03). […] Cells were also treated with staurosporine as a positive control. Cells were stimulated by adding 20 μl of 600 ng/ml SCF to a final concentration of 100 ng/ml (Biosource International SCF kit ligand catalog #PHC2115) in cell culture medium. The cells were incubated at 37° C., 5% CO2 for three days. CellTiter-Glo Buffer (Promega Cell Viability Assay catalog #G7573) and substrate were equilibrated to room temperature, and enzyme/substrate Recombinant Firefly Luciferase/Beetle Luciferin was reconstituted. The cell plates were equilibrated to room temperature for 30 minutes, then lysed by addition of an equivalent volume of the Celltiter-Glo Reagent. […] The plates were read on a Victor Wallac II using Luminescence protocol modified to read 0.1 s per well. The luminescence reading assesses the ATP content, which correlates directly with cell number such that the reading as a function of compound concentration is used to determine the IC50 value.

In the case of `FC(F)(F)c1ccc(CNc2ccc(Cc3c[nH]c4ncccc34)cn2)cc1` [Compound 1-3, [5-(1H-Pyrrolo[2,3-b]pyridin-3-ylmethyl)-pyridin-2-yl]-(4-trifluoromethyl-benzyl)-amine], the IC50 in the assay with M-07e cell line is below 1000 nM. Regarding `Cc1ccc(NC(=O)c2ccc(CN3CCN(C)CC3)cc2)cc1Nc1nccc(-c2cccnc2)n1` [ST1571], in assay [1], the “inhibition of cells with c-Kit mutations in the catalytic region” value was “did not inhibit the cells”.
